Measurements: patent US7647217B2, “Structure of the farnesoid X receptor ligand binding domain and methods of use therefor” (The Salk Institute for Biological Studies, priority 2002, dated 2010)

Legend:
[1] = test system: IBABP mRNA in HT29-FXRFL cells; experiment: Northern blot of IBABP mRNA induction in HT29 stable cell lines; type: cell-based, human; settings: for induction of IBABP mRNA in control lines: HT29-BABE or HT29-FXR-AF2 cell lines; for concentration of maximal activation of the IBABP gene / induction of IBABP mRNA: HT29-FXRFL, overnight treatment
Experimental: 20 μg total RNA was isolated using Trizol (Invitrogen) and used for Northern blot analysis. cDNA probe for human IBABP was prepared and hybridized to the blot. Blots were normalized by β-actin expression.
(§1) HepG2 or HT29-derived cell lines were typically cultured in medium containing superstripped FBS for 24 hr before the addition of a ligand or DMSO (vehicle) for an additional 24-48 hr. Total RNA was isolated using TRIzol reagent and was resolved (10 μg/lane) on a 1% agarose, 2.2 M formaldehyde gel, transferred to a nylon membrane (Hybond N^+; Amersham Biosciences, Inc.), and cross-linked to the membrane with UV light.
(§2) cDNA probes were radiolabeled with [α-^32P]dCTP using the highprime labeling kit (Amersham Biosciences, Inc.). Membranes were hybridized using the QuikHyb hybridization solution (Stratagene, La Jolla, Calif.) according to the manufacturer's protocol. Blots were normalized for variations of RNA loading by hybridization to a control probe, either, 18 S ribosomal cDNA, or the ribosomal protein 36B4. The RNA levels were quantitated using a PhosphorImager (ImageQuant software; Molecular Dynamics, Inc., Sunnyvale, Calif.) in addition to being exposed to X-ray film.
Human colon cells HT29 (FXR null until differentiated) were infected with retroviral vectors that expressed either FXR constructs and the puromycin-resistant gene or the puromycin-resistant gene alone. Puromycin resistant cells were isolated and pooled cell populations were propagated that harbored either the vector alone (HT29-BABE), overexpressed FXR full length (HT29-FXRFL), a non-functional FXR truncated at the AF2 region (HT29-FXR-AF2), or a constitutively active FXR that has the VP16 activation domain fused N-terminal of the protein (HT29-VP16-FXR). Confirmation of the successful establishment of the different stable cell lines was established via northern blot analysis of FXR message levels in the cells (see FIG. 4A). […]
The ability of the novel compounds identified herein to induce IBABP gene expression in this cell system was also examined. Total RNA from HT29 stable cells treated overnight with fexaramine, fexarine and fexarene was probed for IBABP gene expression (see FIG. 4D).

[2] = test system: FXR target genes SHP, MRP-2, BSEP and PLTP in HEPG2-FXR cells; experiment: Northern blot of FXR target genes in HEPG2-FXR cells; type: cell-based, human; settings: for induction of FXR target genes: SHP, MRP-2, BSEP, PLTP; for concentration of maximal activation of FXR target genes: overnight treatment
Experimental: 20 μg total RNA was isolated using Trizol (Invitrogen) and used for Northern blot analysis. cDNA probes for human PLTP, SHP, MRP-2 and BSEP were prepared and hybridized to the blot. Blots were normalized by 36B4 expression as shown.
as §1, §2
Total RNA was isolated and the expression of the FXR target genes SHP, MRP-2, BSEP and PLTP was measured by Northern blot analysis (see FIG. 4E).
Differences in efficacy of target gene induction between the liver and the intestinal cell systems may reflect the ability of the liver hepatocytes to mount a xenobotic response or cell specific permeability to the identified compounds. Modification of the ligands to overcome these effects may be made in order to increase the efficacy of these drugs in liver cell systems.

hPPARαγδ = experiment: GAL4 chimeric NHR cross-reactivity assay; type: cell-based, human; settings: 10 μM
Experimental: (§3) FIGS. 3A-3E collectively show the results of ligand activation of CV-1 cells co-transfected with a luciferase reporter gene with a variety of receptor expression constructs. […] FIGS. 3C-3E show the results of CV-1 cells transiently transfected with the indicated reporter constructs, treated with either DMSO or 10 μM of the compounds fexaramine (3C), fexarine (3D), fexarene (3E). Reporter activity was normalized to the internal control and the data plotted as fold activation relative to untreated cells. All transfections contained CMX-βgal as an internal control.
(§4) The expression plasmids pCMX, pCMX-LacZ, pCMX-mFXRFL, pCMX-hRXRFL, pCMX-GALDBD-rFXRLBD and other pCUX-GALDBD-NR LBDs (hRXRα, hPPARαγδ, mPXR, hPXR, hLXRα, HTRβ, hRARβ, mCAR, mERR3 and hVDR) have been described elsewhere (Blumberg et al. (1998). SXR, a novel steroid and xenobiotic-sensing nuclear receptor. Genes Dev. 12(20), 3195-205). The reporter plasmids pMH2004-TK-luc, pTKECRE*6-luc, pTKER-8*2-luc and pMRP-2-luc also have been described elsewhere. The hPLTP-luc promoter was kindly provided by Dr Dennis Dowhan and the hIBABP-luc promoter was created from a plasmid provided by Dr Philippe Besnard.
(§5) Cell-based transcriptional activation assays using chimeric nuclear hormone receptor (NHR) constructs were established to measure the selectivity of the compounds to FXR relative to other NHRs (Forman et al. (1995). Identification of a nuclear receptor that is activated by farnesol metabolites. Cell 81, 687-693). These assays used fusion proteins with the yeast GAL4 DNA binding domain connected to the ligand-binding domain (LBD) of NHRs. These constructs were co-transfected with a thymidine kinase C minimal promoter reporter vector containing four copies of the GAL4 binding site. Titration experiments were then performed using the identified compounds. […] Addition of RXR had no effect on the activation potential of fexaramine, fexarine, fexarene in this assay.
(§6) No activity was observed on other chimeric NHR constructs including hRXRα, hPPARαγδ, mPXR, hPXR, hLXRα, hTRβ, hRARβ, mCAR, mERR3 and hVDR (see FIGS. 3C-3E).

hTRβ = molecular target: T1, hTRβ (Homo sapiens, UniProt P10828); experiment: GAL4 chimeric NHR cross-reactivity assay; type: cell-based; settings: 10 μM
T1 construct: expressed in transfected cells; host or cells: CV-1 (monkey)
T1 sequence (P10828 217-461 limits assumed): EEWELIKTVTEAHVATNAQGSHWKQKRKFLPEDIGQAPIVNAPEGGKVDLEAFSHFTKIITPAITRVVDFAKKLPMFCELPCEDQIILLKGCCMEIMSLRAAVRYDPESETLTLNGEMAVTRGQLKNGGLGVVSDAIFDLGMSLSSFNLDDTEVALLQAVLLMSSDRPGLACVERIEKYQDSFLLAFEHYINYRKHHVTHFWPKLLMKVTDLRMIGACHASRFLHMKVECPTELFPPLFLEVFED
Experimental: as §3, §4, §5, §6

hPXR = molecular target: T2, hPXR (Homo sapiens, UniProt O75469); experiment: GAL4 chimeric NHR cross-reactivity assay; type: cell-based; settings: 10 μM
T2 construct: expressed in transfected cells; host or cells: CV-1 (monkey)
T2 sequence (O75469 146-433 limits assumed): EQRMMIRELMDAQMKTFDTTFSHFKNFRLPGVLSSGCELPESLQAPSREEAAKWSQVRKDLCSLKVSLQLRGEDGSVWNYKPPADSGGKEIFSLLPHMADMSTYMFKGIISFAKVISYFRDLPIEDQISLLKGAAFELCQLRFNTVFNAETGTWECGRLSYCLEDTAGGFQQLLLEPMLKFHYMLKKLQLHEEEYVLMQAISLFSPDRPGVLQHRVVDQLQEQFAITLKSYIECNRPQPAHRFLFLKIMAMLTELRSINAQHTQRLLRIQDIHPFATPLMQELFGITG
Experimental: as §3, §4, §5, §6

| SMILES | induction of IBABP mRNA in control lines [1] | concentration of maximal activation of the IBABP gene [1] [µM] | induction of IBABP mRNA [1] | induction of FXR target genes [2] | concentration of maximal activation of FXR target genes [2] [µM] | activity on chimeric hPPARαγδ constructs (hPPARαγδ) | activity on chimeric hTRβ construct (hTRβ) | activity on chimeric hPXR construct (hPXR) |
| --- | --- | --- | --- | --- | --- | --- | --- | --- |
| CC(C)c1onc(-c2c(Cl)cccc2Cl)c1COc1ccc(/C=C/c2cccc(C(=O)O)c2)c(Cl)c1 [GW4064, reference compound] | No induction | 1 | robust concentration dependent induction | – | – | – | – | – |
| COC(=O)/C=C/c1cccc(N(Cc2ccc(-c3ccc(N(C)C)cc3)cc2)C(=O)C2CCCCC2)c1 [fexaramine] | No induction | 1 | induced expression of the IBABP mRNA | most effective inducer | 10 | No activity | No activity | – |
| COC(=O)/C=C/c1cccc(N(Cc2ccc(/C=C/c3ccccc3)cc2)C(=O)C2CCCCC2)c1 [fexarene] | No induction | 1 | induced expression of the IBABP mRNA | strong induction | 10 | No activity | No activity | No activity |
| COC(=O)/C=C/c1cccc(N(Cc2ccc(-c3ccc4c(c3)OCO4)cc2)C(=O)C2CCCCC2)c1 [fexarine] | No induction | 1 | induced expression of the IBABP mRNA | strong induction | 10 | No activity | No activity | No activity |
